The values that follow come from PubChem BioAssay AID330 (DTP/NCI, 2004).

Where “and” joins values, the source holds several entries; their conditions need not be identical. Equal values may be shown once. Inconclusive results and toxic doses are left out.

The subject of the assay is P388 leukemia ip, CD2F1 mice, survival T/C. Briefly: NCI In Vivo Anticancer Drug Screen. Data for tumor model P388 Leukemia (intraperitoneal) in CD2F1 (CDF1) mice. The following applies: endpoint: median survival time, higher = longer survival. The essentials:
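Mice carrying the transplanted tumor received test compound or vehicle. Survival was recorded in each group, and the value is the treated-group measurement divided by that of the vehicle-treated control group.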

Where [1] appears, read: dose: 50.0 mg/kg/injection, schedule: Q01DX005 (ip), vehicle: saline.
[2] abbreviates: dose: 100.0 mg/kg/injection, schedule: Q01DX005 (ip), vehicle: saline.
Setting [3] is: dose: 12.5 mg/kg/injection, schedule: Q01DX009 (ip), vehicle: saline.
[4] abbreviates: dose: 25.0 mg/kg/injection, schedule: Q01DX009 (ip), vehicle: saline.
The mark [5] stands for this setting: dose: 100.0 mg/kg/injection, schedule: Q01DX009 (ip), vehicle: saline.
The mark [6] stands for this setting: dose: 200.0 mg/kg/injection, schedule: Q01DX009 (ip), vehicle: saline.
Setting [7] is: dose: 100.0 mg/kg/injection, schedule: Q04DX002 (ip), vehicle: saline with Tween-80.
Where [8] appears, read: dose: 200.0 mg/kg/injection, schedule: Q04DX002 (ip), vehicle: saline with Tween-80.

Regarding `COc1cc([C@@H]2c3cc4c(cc3[C@H](O)[C@@H](CO)[C@@H]2C(=O)O)OCO4)cc(OC)c1OC`, the T/C was 90 % of control under setting [1]; 94 % of control under setting [2]; 93 % of control (dose: 200.0 mg/kg/injection, schedule: Q01DX005 (ip), vehicle: saline).
On to `CC(C)=CCC(C)/C(=N\[N+](C)(C)C)c1ccccc1` (stereo not drawn), for which the T/C by setting is: (dose: 6.25 mg/kg/injection, schedule: Q01DX009 (ip), vehicle: saline) 94 % of control; under setting [3], 99 % of control; under setting [4], 101 % of control and 116 % of control.
With `C[CH2][Sn]([CH2]C)([S]c1nc(O)cc(=O)[nH]1)[S]c1nc(O)cc(=O)[nH]1`, the T/C is, setting by setting: (dose: 1.56 mg/kg/injection, schedule: Q01DX005 (ip), vehicle: Klucel (hydroxypropylcellulose) (HPC)) 107 % of control; (dose: 3.12 mg/kg/injection, schedule: Q01DX005 (ip), vehicle: Klucel (hydroxypropylcellulose) (HPC)) 113 % of control and 119 % of control; (dose: 6.25 mg/kg/injection, schedule: Q01DX005 (ip), vehicle: Klucel (hydroxypropylcellulose) (HPC)) 118 % of control.
For `CCO/C=C1/N=C(c2cccc3ccccc23)OC1=O`, the T/C (dose: 60.0 mg/kg/injection, schedule: Q01DX005 (ip), vehicle: saline with Tween-80) is 99 % of control; the T/C (dose: 120.0 mg/kg/injection, schedule: Q01DX005 (ip), vehicle: saline with Tween-80) was 99 % of control; the T/C (dose: 240.0 mg/kg/injection, schedule: Q01DX005 (ip), vehicle: saline with Tween-80) is 99 % of control.
Turning to `CCN(CC)CCOC(=O)Cc1cccc2c(=O)cc(-c3ccccc3)oc12`, the T/C runs as follows: under setting [3], 120 % of control; under setting [4], 108 % of control and 97 % of control; under setting [1], 100 % of control; (dose: 100.0 mg/kg/injection, schedule: Q01DX001 (ip), vehicle: saline) 102 % of control; under setting [2], 108 % of control; (dose: 100.0 mg/kg/injection, schedule: Q04DX002 (ip), vehicle: saline) 107 % of control. Further, the T/C was 107 % of control (dose: 100.0 mg/kg/injection, schedule: Q04DX003 (ip), vehicle: saline); 111 % of control (dose: 100.0 mg/kg/injection, schedule: Q08DX002 (ip), vehicle: saline); 114 % of control (dose: 200.0 mg/kg/injection, schedule: Q01DX001 (ip), vehicle: saline); 110 % of control (dose: 200.0 mg/kg/injection, schedule: Q04DX002 (ip), vehicle: saline); 117 % of control (dose: 200.0 mg/kg/injection, schedule: Q08DX002 (ip), vehicle: saline); 117 % of control (dose: 300.0 mg/kg/injection, schedule: Q01DX001 (ip), vehicle: saline). Further, the T/C by setting is: (dose: 300.0 mg/kg/injection, schedule: Q04DX002 (ip), vehicle: saline) 114 % of control; (dose: 300.0 mg/kg/injection, schedule: Q08DX002 (ip), vehicle: saline) 112 % of control; (dose: 400.0 mg/kg/injection, schedule: Q01DX001 (ip), vehicle: saline) 116 % of control.
With `C1OC1C1CO1` (stereo not drawn), the T/C by setting is: (dose: 10.0 mg/kg/injection, schedule: Q04DX003 (ip), vehicle: saline) 113 % of control; (dose: 13.2 mg/kg/injection, schedule: Q01DX009 (ip), vehicle: saline) 109 % of control; (dose: 20.0 mg/kg/injection, schedule: Q04DX003 (ip), vehicle: saline) 113 % of control; (dose: 30.0 mg/kg/injection, schedule: Q01DX009 (ip), vehicle: saline) 118 % of control; (dose: 40.0 mg/kg/injection, schedule: Q01DX009 (ip), vehicle: saline) 95 % of control; (dose: 40.0 mg/kg/injection, schedule: Q04DX003 (ip), vehicle: saline) 109 % of control.
As to `O=C1NCN(c2ccccc2)C12CCNCC2`, the T/C is 109 % of control (dose: 25.0 mg/kg/injection, schedule: Q04DX003 (ip), vehicle: saline sonified); 109 % of control (dose: 50.0 mg/kg/injection, schedule: Q04DX003 (ip), vehicle: saline sonified); 95 % of control (dose: 100.0 mg/kg/injection, schedule: Q04DX003 (ip), vehicle: saline sonified).
Take `CC(=O)NC(Cc1c[nH]c2ccccc12)C(=O)Oc1ccc([N+](=O)[O-])cc1` (stereo not drawn): the T/C was 95 % of control (dose: 50.0 mg/kg/injection, schedule: Q01DX009 (ip), vehicle: saline); 98 % of control under setting [5]; 92 % of control under setting [6].
Regarding `NC(=O)C1ONC(=O)C1N` (stereo not drawn), the T/C was 106 % of control (dose: 25.0 mg/kg/injection, schedule: Q01DX009 (ip), vehicle: water); 103 % of control (dose: 50.0 mg/kg/injection, schedule: Q01DX009 (ip), vehicle: water); 98 % of control (dose: 100.0 mg/kg/injection, schedule: Q01DX001 (ip), vehicle: water); 104 % of control (dose: 100.0 mg/kg/injection, schedule: Q01DX009 (ip), vehicle: water); 100 % of control (dose: 100.0 mg/kg/injection, schedule: Q04DX003 (ip), vehicle: water); 100 % of control (dose: 200.0 mg/kg/injection, schedule: Q01DX001 (ip), vehicle: water). Also, the T/C (dose: 200.0 mg/kg/injection, schedule: Q01DX009 (ip), vehicle: water) was 120 % of control; the T/C (dose: 200.0 mg/kg/injection, schedule: Q04DX003 (ip), vehicle: water) is 101 % of control; the T/C (dose: 400.0 mg/kg/injection, schedule: Q01DX001 (ip), vehicle: water) was 92 % of control; the T/C (dose: 400.0 mg/kg/injection, schedule: Q04DX003 (ip), vehicle: water) was 101 % of control; the T/C (dose: 600.0 mg/kg/injection, schedule: Q01DX001 (ip), vehicle: water) was 96 % of control.
In the case of `CCCCCCCCCCNC(=O)C[n+]1cccc(C(=O)NCc2ccccc2)c1`, the T/C was 100 % of control (dose: 3.13 mg/kg/injection, schedule: Q01DX009 (ip), vehicle: saline with Tween-80); 95 % of control (dose: 6.25 mg/kg/injection, schedule: Q01DX009 (ip), vehicle: saline with Tween-80); 90 % of control (dose: 12.5 mg/kg/injection, schedule: Q01DX009 (ip), vehicle: saline with Tween-80).
For the compound `O=C(CC(=O)N1CCN(c2ccccc2)CC1)N1CCN(c2ccccc2)CC1`, the T/C reads like this: (dose: 25.0 mg/kg/injection, schedule: Q01DX009 (ip), vehicle: saline with Tween-80) 95 % of control; (dose: 50.0 mg/kg/injection, schedule: Q01DX009 (ip), vehicle: saline with Tween-80) 97 % of control; (dose: 100.0 mg/kg/injection, schedule: Q01DX009 (ip), vehicle: saline with Tween-80) 98 % of control; under setting [5], 93 % of control.
For the compound `COC(=O)C1C(C2OC3OC(C)(C)OC3C3OC(C)(C)OC32)N1C(=O)Cl` (stereo not drawn), the T/C by setting is: under setting [7], 102 % of control; under setting [8], 103 % of control.
Turning to `Cc1ccccc1N(CC1CO1)CC1CO1` (stereo not drawn), the T/C by setting is: under setting [4], 119 % of control; (dose: 100.0 mg/kg/injection, schedule: Q01DX009 (ip), vehicle: acetone) 156 % of control; under setting [6], 165 % of control.
Take `Cc1ccnc(NS(=O)(=O)c2ccc(NC(=O)Nc3ccc(Cl)c(C(F)(F)F)c3)cc2)n1`: the T/C was 99 % of control (dose: 50.0 mg/kg/injection, schedule: Q01DX005 (ip), vehicle: Klucel (hydroxypropylcellulose) (HPC)); 104 % of control (dose: 100.0 mg/kg/injection, schedule: Q01DX005 (ip), vehicle: Klucel (hydroxypropylcellulose) (HPC)); 96 % of control (dose: 200.0 mg/kg/injection, schedule: Q01DX005 (ip), vehicle: Klucel (hydroxypropylcellulose) (HPC)).
As to `COc1ccc(C(=O)/C=C/c2ccc(OC)c(OC)c2OCc2ccccc2)c(O)c1`, the T/C (dose: 100.0 mg/kg/injection, schedule: Q01DX001 (ip), vehicle: Klucel (hydroxypropylcellulose) (HPC)) is 94 % of control and the T/C (dose: 200.0 mg/kg/injection, schedule: Q01DX001 (ip), vehicle: Klucel (hydroxypropylcellulose) (HPC)) is 88 % of control.
In the case of `CCCCCCOc1cc(N)ccc1C(=O)O`, the T/C is 98 % of control under setting [7]; 100 % of control under setting [8]; 92 % of control (dose: 400.0 mg/kg/injection, schedule: Q04DX002 (ip), vehicle: saline with Tween-80).
Turning to `CCCCOC(=O)CCC(C)=O`, the T/C was 100 % of control (dose: 100.0 mg/kg/injection, schedule: Q04DX003 (ip), vehicle: saline with Tween-80); 100 % of control (dose: 200.0 mg/kg/injection, schedule: Q04DX003 (ip), vehicle: saline with Tween-80); 104 % of control (dose: 400.0 mg/kg/injection, schedule: Q04DX003 (ip), vehicle: saline with Tween-80).
